How the values were obtained:
[1] = ligand solubility in assay buffer; assay type: physicochemical; settings: for solubility: assay buffer with 5% or 10% DMSO; for highest achievable ligand concentration: assay buffer, final DMSO concentration 10%
[2] = target: T1, FimHLD (isolated lectin domain of FimH) (Escherichia coli, UniProt P08191); test: competitive fluorescence polarization assay; assay type: binding; settings: for factor of affinity improvement from 1: aglycone optimization
[3] = target: FimHFL (full length FimH) (Escherichia coli, UniProt P08191); test: competitive fluorescence polarization assay; assay type: binding
Chain of FimHFL (full length FimH) (P08191 22-300, other chains not shown): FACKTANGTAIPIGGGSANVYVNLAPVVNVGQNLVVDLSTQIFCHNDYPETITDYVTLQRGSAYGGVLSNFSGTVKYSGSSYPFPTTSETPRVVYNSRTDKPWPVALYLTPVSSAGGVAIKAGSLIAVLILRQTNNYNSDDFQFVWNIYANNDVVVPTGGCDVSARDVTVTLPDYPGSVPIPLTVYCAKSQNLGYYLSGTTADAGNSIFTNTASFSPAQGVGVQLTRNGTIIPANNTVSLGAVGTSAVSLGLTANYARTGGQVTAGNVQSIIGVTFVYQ

[4] = target: T1, FimHLD (isolated lectin domain of FimH); settings: read-out: KD FimHLD; competitive FPA; mannosides; ref [18] and [19]; cited from earlier work
[5] = target: FimHLD (Escherichia coli, UniProt P08191); test: isothermal titration calorimetry; assay type: binding; settings: ITC KD versus FPA KD
Chain of FimHLD (P08191 22-179): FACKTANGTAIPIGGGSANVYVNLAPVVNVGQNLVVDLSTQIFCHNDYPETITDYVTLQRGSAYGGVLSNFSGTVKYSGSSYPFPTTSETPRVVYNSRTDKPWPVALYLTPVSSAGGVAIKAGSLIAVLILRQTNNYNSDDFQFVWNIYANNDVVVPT

T1 sequence (P08191 22-179): as above

SMILES: OC[C@H]1OC[C@H](Oc2ccc(-c3ccccc3)cc2Cl)[C@@H](O)[C@@H](O)[C@@H]1O [8c, 2-O-[4-phenyl-2-chlorophenyl]-1,6-anhydro-D-glycero-D-galactitol]
- solubility [1]: low solubility
- highest achievable ligand concentration [1]: ≤ 500 µM
- factor of affinity improvement from 1 ([2]; FPA): 32

SMILES: N#Cc1ccc(-c2ccc(O[C@H]3CO[C@H](CO)[C@@H](O)[C@H](O)[C@@H]3O)c(Cl)c2)cc1 [8a, 2-O-[4-(4’-cyanophenyl)-2-chlorophenyl]-1,6-anhydro-D-glycero-D-galactitol]
- solubility [1]: low solubility
- highest achievable ligand concentration [1]: ≤ 500 µM
- factor of affinity improvement compared to 6 ([2]; FPA, ortho-chloro modification): 2.6
- factor of affinity gain by ortho-chloro modification ([3]; FimHFL, FPA, versus 6): 6

SMILES: N#Cc1ccc(-c2ccc(CO[C@H]3CO[C@H](CO)[C@@H](O)[C@H](O)[C@@H]3O)cc2)cc1 [7a, 2-O-(4-[4-cyanophenyl]benzyl)-1,6-anhydro-D-glycero-D-galactitol]
- solubility [1]: insufficient solubility
- increase in binding affinity to FimHFL ([3]; para-cyano group on outer aromatic ring versus unsubstituted 7c): approximately 2 fold

SMILES: N#Cc1ccc(-c2ccc(O[C@H]3O[C@H](CO)[C@@H](O)[C@H](O)[C@@H]3O)cc2)cc1 [compound 27]
- Kd [4]: 2 nM

SMILES: NC(=O)c1ccc(-c2ccc(O[C@H]3O[C@H](CO)[C@@H](O)[C@H](O)[C@@H]3O)cc2)cc1 [compound 28]
- Kd [4]: 2.8 nM

SMILES: N#Cc1ccc(-c2ccc(CO[C@H]3CO[C@H](CO)[C@@H](O)[C@H](O)[C@@H]3O)c(Cl)c2)cc1 [9a, 2-O-(2-chloro-4-[4-cyanophenyl]benzyl)-1,6-anhydro-D-glycero-D-galactitol]
- factor of affinity improvement from 1 ([2]; FPA): 1.5

SMILES: N#Cc1ccc(-c2ccc(O[C@H]3CO[C@H](CO)[C@@H](O)[C@H](O)[C@@H]3O)cc2)cc1 [compound 6, 2-O-(4-[4-cyanophenyl]phenyl)-1,6-anhydro-D-glycero-D-galactitol]
- solubility [1]: low solubility
- highest achievable ligand concentration [1]: ≤ 500 µM
- factor of affinity increase compared to 7a ([2]; FPA): 6
- ITC binding affinity lower than recorded in the FPA assay [5]: approx. 3 fold

SMILES: N#Cc1ccc(-c2ccc(O[C@H]3O[C@H](CO)[C@@H](O)[C@H](O)[C@@H]3O)c(Cl)c2)cc1 [compound 30, reference compound]
- factor of affinity improvement comparing 2 to 30 ([2]; mannoside ligands, from literature KD values): 56.6

SMILES: OC[C@H]1OC[C@H](OCc2ccccc2)[C@@H](O)[C@@H](O)[C@@H]1O [compound 4, 2-O-benzyl-1,6-anhydro-D-glycero-D-galactitol]
- factor of loss in binding affinity compared to phenylpropyl analog 5 ([2]; FPA): 10

From PMC10964925 (European journal of medicinal chemistry, 2024)
